Measured values: patent publication US7875644B2, “1-acyldihydropyrazole derivatives” (Merck Patent GmbH, priority 2005, dated 2011)

target: T1, Met kinase (Homo sapiens, UniProt P08581); experiment: Met kinase inhibition, flashplate method; assay type: biochemical; settings: 33P-ATP, substrate pAGLT, 3 hrs at room temperature
T1 construct: 6His (N); purchased Upstate 14-526; host or cells: Sf21 insect cells (S. frugiperda), baculovirus
Excerpt: According to the manufacturer's data (Met, active, upstate, catalogue No. 14-526), Met kinase is expressed for the purposes of protein production in insect cells (Sf21; S. frugiperda) and subsequent affinity-chromatographic purification as “N-terminal 6His-tagged” recombinant human protein in a baculovirus expression vector.
The test plates used are 96-well Flashplate^R microtitre plates from Perkin Elmer (Cat. No. SM P200). The components of the kinase reaction described below are pipetted into the assay plate. The Met kinase and the substrate poly Ala-Glu-Lys-Tyr, (pAGLT, 6:2:5:1), are incubated for 3 hrs at room temperature with radioactively labelled ^33P-ATP in the presence and absence of test substances in a total volume of 100 μl. The reaction is terminated using 150 μl of a 60 mM EDTA solution. After incubation for a further 30 min at room temperature, the supernatants are filtered off with suction, and the wells are washed three times with 200 μl of 0.9% NaCl solution each time. The measurement of the bound radioactivity is carried out by means of a scintillation measuring instrument (Topcount NXT, Perkin-Elmer).
The full value used is the inhibitor-free kinase reaction. This should be approximately in the range 6000-9000 cpm. The pharmacological zero value used is staurosporin in a final concentration of 0.1 mM. The inhibitory values (IC50) are determined using the RS1_MTS program.
Kinase reaction conditions per well: • 30 μl of assay buffer • 10 μl of substance to be tested in assay buffer with 10% of DMSO • 10 μl of ATP (final concentration 1 μM cold, 0.35 μCi of ^33P-ATP) • 50 μl of Met kinase/substrate mixture in assay buffer; • (10 ng of enzyme/well, 50 ng of pAGLT/well) • Solutions used: • Assay buffer: • 50 mM HEPES • 3 mM magnesium chloride • 3 μM sodium orthovanadate • 3 mM manganese(II) chloride • 1 mM dithiothreitol (DTT) • pH=7.5 (to be set using sodium hydroxide) • Stop solution: • 60 mM Titriplex III (EDTA) • ^33P-ATP: Perkin-Elmer; • Met kinase: Upstate, Cat. No. 14-526, Stock 1 μg/10 μl; spec. activity 954 U/mg; • Poly-Ala-Glu-Lys-Tyr, 6:2:5:1:Sigma Cat. No. P1152

T1 sequence (P08581 974-1390 limits assumed): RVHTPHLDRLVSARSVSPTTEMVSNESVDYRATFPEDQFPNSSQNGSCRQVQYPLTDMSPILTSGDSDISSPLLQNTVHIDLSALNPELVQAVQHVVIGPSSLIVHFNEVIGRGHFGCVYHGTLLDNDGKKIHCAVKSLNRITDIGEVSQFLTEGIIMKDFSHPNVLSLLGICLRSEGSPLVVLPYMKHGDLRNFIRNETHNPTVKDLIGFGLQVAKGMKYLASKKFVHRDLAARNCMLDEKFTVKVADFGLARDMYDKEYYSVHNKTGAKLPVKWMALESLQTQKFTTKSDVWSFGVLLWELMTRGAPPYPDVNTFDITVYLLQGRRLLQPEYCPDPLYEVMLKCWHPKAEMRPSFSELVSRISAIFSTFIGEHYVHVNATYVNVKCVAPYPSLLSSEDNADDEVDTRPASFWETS

| IC50 [nM] | SMILES |
| --- | --- |
| 320 | COc1ccc(C2=NN(C(=O)Cc3ccc4nsnc4c3)CC2)c(OC)c1 [Compound A1, 1-(benzo-1,2,5-thiadiazol-5-ylmethylcarbonyl)-3-(2,4-dimethoxyphenyl)-4,5-dihydro-1H-pyrazole] |
| 610 | O=C(Cc1ccc2nsnc2c1)N1CCC(c2ccc(F)cc2)=N1 [Compound A2, 1-(benzo-1,2,5-thiadiazol-5-ylmethylcarbonyl)-3-(4-fluorophenyl)-4,5-dihydro-1H-pyrazole] |
| 990 | COc1ccc(C2=NN(C(=O)Cc3cccc(O)c3)CC2)c(OC)c1 [Compound A30, 1-(3-Hydroxybenzylcarbonyl)-3-(2,4-dimethoxy-phenyl)-4,5-dihydro-1H-pyrazole] |
| 330 | O=C(Cc1cccc(O)c1)N1CCC(c2ccc(F)cc2)=N1 [Compound A31, 1-(3-Hydroxybenzylcarbonyl)-3-(4-fluorophenyl)-4,5-dihydro-1H-pyrazole] |
| 9 | CC(C(=O)N1CCC(c2ccc3c(c2)CNC(=O)N3)=N1)c1ccc(O)cc1 (stereo not drawn) [Compound A100, 3-(2-Oxo-3,4-dihydro-1H-quinazolin-6-yl)-1-[2-(4-hydroxyphenyl)propionyl]-4,5-dihydro-1H-pyrazole] |
| 3 | O=C(Cc1ccc2[nH]cnc2c1)N1CCC(c2cc(Cl)ccc2O)=N1 [Compound A108, 1-[2-(1H-Benzimidazol-5-yl)acetyl]-3-(3-chloro-6-hydroxyphenyl)-4,5-dihydro-1H-pyrazole] |
| 3.6 | CC(C(=O)N1CCC(c2cc(Cl)ccc2O)=N1)c1ccc(O)cc1 (stereo not drawn) [Compound A120, 3-(3-Chloro-6-hydroxyphenyl)-1-[2-(4-hydroxy-phenyl)propionyl]-4,5-dihydro-1H-pyrazole] |
| 8 | CN(C)CCCOC(=O)Nc1cccc(CC(=O)N2CCC(c3cc(Cl)ccc3Cl)=N2)c1 [Compound A153, 3-Dimethylaminopropyl (3-{2-[3-(2,5-dichlorophenyl)-4,5-dihydro-1H-pyrazol-1-yl]-2-oxoethyl}phenyl)carbamate] |
| 2.5 | O=C(Nc1cccc(CC(=O)N2CCC(c3cc(Cl)ccc3Cl)=N2)c1)OCCCN1CCOCC1 [Compound A154, 3-morpholin-4-ylpropyl (3-{2-[3-(2,5-dichlorophenyl)-4,5-dihydro-1H-pyrazol-1-yl]-2-oxoethyl}phenyl)carbamate] |
